Values quoted from earlier work, collected in patent publication US20220288273A1, “OSTEOINDUCTIVE MODIFIED GELATIN HYDROGELS AND METHODS OF MAKING AND USING THE SAME” (THE REGENTS OF THE UNIVERSITY OF CALIFORNIA, priority 2019, published 2022).

SMILES	water solubility
CC(C)(O)C(=O)c1ccc(OCCO)cc1 [Irgacure-2959, 2-Hydroxy-4′-(2-hydroxyethoxy)-2-methylpropiophenone]	low water solubility
Cc1cc(C)c(C(=O)P(=O)([O-])c2ccccc2)c(C)c1.[Li+] [LAP, Lithium phenyl-2,4,6-trimethylbenzoylphosphinate]	high water solubility
